Laboratory results: US20060269924A1, “Modulation of telomere-initiated cell signaling” (TRUSTEES OF BOSTON UNIVERSITY, priority 2003, published 2006)
{P} = phosphate

Key:
[1] = test system: HT-1080 fibrosarcoma cells; test: Telomere length (mean TRF length) assay; assay type: cell-based, human; conditions: HT-1080 cells, 40 μM, 4 days
Method: Cells were treated as described in FIG. 13a. Lanes 1, 2, 3 contain genomic DNA from cells treated with diluent (D), T-oligo (T), or complementary oligo (C). Lanes 4 and 5 contain high (H) molecular and low (L) molecular weight standard telomeric DNA.
HT-1080 fibrosarcoma cells were treated with diluent, 40 μM T-oligo or 40 μM complementary oligo for 4 days and then the genomic DNA was isolated using the DNeasy Tissue Kit (Qiagen, Valencia, Calif.). Telomere length was determined using the Telo TTAGGG Telomere Length Assay (Roche Molecular Biochemicals, Indianapolis, Ind.) following the protocol supplied by the manufacturer. […] Terminal restriction fragments (TRF) were detected by chemiluminescence. The mean TRF length was calculated by scanning the exposed X-ray film with a densitometer and calculated as previously described (Harley et al. [1990] Telomeres shorten during ageing of human fibroblasts. Nature 345, 458-460).
To determine the affect of T-oligos on the mean telomere length (MTL) in HT-1080 cells, cells were analyzed after treatment with T-oligo for 4 days which corresponded to the time that the senescent phenotype was readily observed. […] The less than 100 bp difference in calculated MTL is within the range of experimental variation and is not significant.

[2] = test system: Jurkat cells; test: FACS analysis of propidium iodide stained Jurkat cells (cell cycle, sub-G0/G1 apoptosis); assay type: cell-based, human
Method: FIGS. 1A-1H show FACS analysis of propidium iodide stained Jurkat cells (immortalized T lymphocytes), treated with diluent (FIGS. 1A and 1E); 40 μM 11mer-1 pGTTAGGGTTAG (SEQ ID NO: 2) (FIGS. 1B and 1F); 40 μM 11mer-2 pCTAACCCTAAC (SEQ ID NO: 3) (FIGS. 1C and […]); 40 μM 11mer-3 pGATCGATCGAT (SEQ ID NO: 4) (FIGS. 1D and 1H). Jurkat cells were treated with the stated reagents for 48 hours before analysis (FIGS. 1A-1D) or 72 hours (FIGS. 1E-1H).
FIGS. 2A-2F are profiles showing the results of fluorescence activated cell sorting, for the following additions to the cells: FIG. 2A, diluent; FIG. 2B, 0.4 μM 11mer-1; FIG. 2C, 0.4 μM 11mer-1-S; FIG. 2D, diluent; FIG. 2E, 40 μM 11mer-1; FIG. 2F, 40 μM 11 mer-1-S.
Oligonucleotides homologous to the telomere overhang repeat sequence (TTAGGG; SEQ ID NO: 1), sequence (11mer-1: pGTTAGGGTTAG; SEQ ID NO: 2), complementary to this sequence (11mer-2: pCTAACCCTAAC; SEQ ID NO: 3) and unrelated to the telomere sequence (11mer-3: pGATCGATCGAT; SEQ ID NO: 4) were added to cultures of Jurkat cells, a line of human T cells reported to undergo apoptosis in response to telomere disruption. Within′ 48 hours, 50% of the cells treated with 40 μM of SEQ ID NO: 5 had accumulated in the S phase, compared to 25-30% for control cells (p<0.0003, non-paired t-test; see FIGS. 1A-1D), and by 72 hours, 13% of these cells were apoptotic as determined by a sub-G0/G1 DNA content, compared to 2-3% of controls (p<0.007, non-paired t-test; see FIGS. 1E-1H). At 96 hours, 20±3% of the 11mer-1 treated cells were apoptotic compared with 3-5% of controls (p<0.0001, non-paired t-test). To exclude preferential uptake of the 11mer-1 as an explanation of its singular effects, Jurkat cells were treated with oligonucleotides labeled on the 3′ end with fluorescein phosphoramidite, then subjected to confocal-microscopy and FACS analysis. The fluorescence intensity of the cells was the same after all treatments at 4 hours and 24 hours.
Cultures of Jurkat human T cells were treated with either diluent, 11mer-1 ([…]) or the phosphorothioate 11mer-1 (11mer-1-S) for 96 hours, then collected and processed for FACS analysis. Two concentrations of the oligonucleotides were tested, 0.4 μM (FIGS. 2A-2C) and 40 μM (FIGS. 2D-2F).

pGTTAGGGTTAG (DNA, 5' {P}, backbone not given here; listed as Homo sapiens) [Oligonucleotide 11mer-1]
mean telomere length (MTL) [1]: 5.56 kb
effect on exponentially growing cell cycle profile ([2]; 0.4 μM, 96 hours): neither of the oligonucleotides affected
cells accumulated in the S phase ([2]; 40 μM, 48 hours): 50%
apoptotic cells (sub-G0/G1 DNA content) ([2]; 40 μM, 72 hours): 13%
apoptosis (sub-G0/G1 peak) ([2]; 40 μM, 96 hours): induced extensive apoptosis
apoptotic cells ([2]; 96 hours): 20±3%
